US20150289513A1, “USE OF A COMPOUND COMPRISING A POLYFLUOROBENZYL MOIETY AGAINST INSECTICIDE-RESISTANT PESTS” (priority 2012, published 2015)

Experiments:
Test in all cases: Glazed tile contact test, knock-down
Type in all cases: in vivo
[1] = tested on: Aedes aegypti (target-site-resistant strain: Grand Cayman)
Procedure: To produce a suitable preparation Transfluthrin was dissolved in acetone. The active compound solution was pipetted onto a glazed tile and, after drying, adult mosquitoes of the species Aedes aegypti (target-site-resistant strain: Grand Cayman) were placed onto the treated tile. The exposition time was 30 minutes.
(§1) 0.25 hours, 0.5 hours, 1 hour, 2 hour, 3 hour, 4 hour and 24 hours after contact to the treated surface, the knock-down proportion of the test animals in % was determined. Here, 100% (effect) means that all mosquitoes have been killed; 0% (effect) means that none of the mosquitoes have been killed.

[2] = tested on: Anopheles gambiae (strain: Tiassalé)
Procedure: (§2) To produce a suitable preparation Transfluthrin was dissolved in acetone. The active compound solution was pipetted onto a glazed tile and, after drying, adult mosquitoes of the species: • Anopheles gambiae (target-site-resistant and metabolic-resistant strain: RSPH), • Anopheles gambiae (target-site-resitant and metabolic-resistant strain: Tiassalé), • Anopheles gambiae (tar et-site-resitant and metabolic-resistant strain: Akron), • Anopheles gambiae (target-site-resistant strain: VK7), and • Anopheles funestus (metabolic-resistant strain FUMOZ-R) were placed onto the treated tile (each strain was tested on separate tiles). The exposition time was 30 minutes.
as §1

[3] = tested on: Anopheles funestus (metabolic-resistant strain FUMOZ-R)
Procedure: as §2, §1
Similarly as outlined in example 2 for Transfluthrin, Metofluthrin efficacy was assessed against • Anopheles gambiae (target-site-resistant and metabolic-resistant strain: RSPH), • Anopheles funestus (metabolic-resistant strain FUMOZ-R), and • Culex quinquefasciatus (metabolic-resistant to DDT; strain P00), with the results shown in Tables 10 to 12. 0.25 hours, 0.5 hours, 1 hour, 2 hour, 3 hour, 4 hour and 24 hours after contact to the treated surface, the knock-down proportion of the test animals in % is depicted in Tables 10 to 12. 100% (effect) means that all mosquitoes have been killed; 0% (effect) means that none of the mosquitoes have been killed.
Similarly as outlined in example 2 for Transfluthrin, Metofluthrin efficacy was assessed against • Anopheles gambiae (target-site-resistant and metabolic-resistant strain: RSPH), • Anopheles funestus (metabolic-resistant strain FUMOZ-R), and with the results shown in Tables […]. 0.25 hours, 0.5 hours, 1 hour, 2 hour and 3 hours after contact to the treated surface, the knock-down proportion of the test animals in % is depicted in Tables 13 to 14. 100% (effect) means that all mosquitoes have been killed; 0% (effect) means that none of the mosquitoes have been killed.

[4] = 0.064 g/ha, 0.25 h after contact
[5] = 0.064 g/ha, 0.5 h after contact
[6] = 0.32 g/ha, 0.25 h after contact

Structure (SMILES): CC1(C)[C@H](C=C(Cl)Cl)[C@H]1C(=O)OCc1c(F)c(F)cc(F)c1F [Transfluthrin, (1R,3S)-3-(2,2-Dichlorovinyl)-2,2-dimethyl-1-cyclopropanecarboxylic acid (2,3,5,6-tetrafluorophenyl)methyl ester]
- Effect % [1, 4]: 5%
- Effect % [1, 5]: 0%
- Effect % ([1]; 0.064 g/ha, 1 h after contact): 0%
- Effect % ([1]; 0.064 g/ha, 2 h after contact): 0%
- Effect % ([1]; 0.064 g/ha, 3 h after contact): 0%
- Effect % ([1]; 0.064 g/ha, 4 h after contact): 0%
- Effect % ([1]; 0.064 g/ha, 24 h after contact): 10%
- Effect % [1, 6]: 20%
- Effect % ([1]; 0.32 g/ha, 0.5 h after contact): 25%
- Effect % ([1]; 0.32 g/ha, 1 h after contact): 30%
- Effect % ([1]; 0.32 g/ha, 2 h after contact): 20%
- Effect % ([1]; 0.32 g/ha, 3 h after contact): 20%
- Effect % ([1]; 0.32 g/ha, 4 h after contact): 25%
- Effect % ([1]; 0.32 g/ha, 24 h after contact): 20%
- Effect % ([1]; 1.6 g/ha, 0.25 h after contact): 70%
- Effect % ([1]; 1.6 g/ha, 0.5 h after contact): 60%
- Effect % ([1]; 1.6 g/ha, 1 h after contact): 70%
- Effect % ([1]; 1.6 g/ha, 2 h after contact): 70%
- Effect % ([1]; 1.6 g/ha, 3 h after contact): 65%
- Effect % ([1]; 1.6 g/ha, 4 h after contact): 60%
- Effect % ([1]; 1.6 g/ha, 24 h after contact): 70%
- Effect % ([1]; 8 g/ha, 0.25 h after contact): 90%
- Effect % ([1]; 8 g/ha, 0.5 h after contact): 100%
- Effect % ([1]; 8 g/ha, 1 h after contact): 100%
- Effect % ([1]; 8 g/ha, 2 h after contact): 90%
- Effect % ([1]; 8 g/ha, 3 h after contact): 100%
- Effect % ([1]; 8 g/ha, 4 h after contact): 90%
- Effect % ([1]; 8 g/ha, 24 h after contact): 90%
- Effect % ([1]; 40 g/ha, 0.25 h after contact): 100%
- Effect % ([1]; 40 g/ha, 0.5 h after contact): 100%
- Effect % ([1]; 40 g/ha, 1 h after contact): 100%
- Effect % ([1]; 40 g/ha, 2 h after contact): 100%
- Effect % ([1]; 40 g/ha, 3 h after contact): 100%
- Effect % ([1]; 40 g/ha, 4 h after contact): 100%
- Effect % ([1]; 40 g/ha, 24 h after contact): 100%
- Effect % ([1]; 200 g/ha, 0.25 h after contact): 100%
- Effect % ([1]; 200 g/ha, 0.5 h after contact): 100%
- Effect % ([1]; 200 g/ha, 1 h after contact): 100%
- Effect % ([1]; 200 g/ha, 2 h after contact): 100%
- Effect % ([1]; 200 g/ha, 3 h after contact): 100%
- Effect % ([1]; 200 g/ha, 4 h after contact): 100%
- Effect % ([1]; 200 g/ha, 24 h after contact): 100%
- Effect % [2, 4]: 5%
- Effect % [2, 5]: 10%
- Effect % ([2]; 0.064 g/ha, 1 h after contact): 15%
- Effect % ([2]; 0.064 g/ha, 2 h after contact): 15%
- Effect % ([2]; 0.064 g/ha, 3 h after contact): 15%
- Effect % ([2]; 0.064 g/ha, 4 h after contact): 10%
- Effect % ([2]; 0.064 g/ha, 24 h after contact): 20%
- Effect % [2, 6]: 5%
- Effect % ([2]; 0.32 g/ha, 0.5 h after contact): 15%
- Effect % ([2]; 0.32 g/ha, 1 h after contact): 5%
- Effect % ([2]; 0.32 g/ha, 2 h after contact): 10%
- Effect % ([2]; 0.32 g/ha, 3 h after contact): 10%
- Effect % ([2]; 0.32 g/ha, 4 h after contact): 10%
- Effect % ([2]; 0.32 g/ha, 24 h after contact): 15%
- Effect % ([2]; 1.6 g/ha, 0.25 h after contact): 0%
- Effect % ([2]; 1.6 g/ha, 0.5 h after contact): 15%
- Effect % ([2]; 1.6 g/ha, 1 h after contact): 10%
- Effect % ([2]; 1.6 g/ha, 2 h after contact): 5%
- Effect % ([2]; 1.6 g/ha, 3 h after contact): 5%
- Effect % ([2]; 1.6 g/ha, 4 h after contact): 0%
- Effect % ([2]; 1.6 g/ha, 24 h after contact): 10%
- Effect % ([2]; 8 g/ha, 0.25 h after contact): 90%
- Effect % ([2]; 8 g/ha, 0.5 h after contact): 100%
- Effect % ([2]; 8 g/ha, 1 h after contact): 100%
- Effect % ([2]; 8 g/ha, 2 h after contact): 85%
- Effect % ([2]; 8 g/ha, 3 h after contact): 80%
- Effect % ([2]; 8 g/ha, 4 h after contact): 85%
- Effect % ([2]; 8 g/ha, 24 h after contact): 60%
- Effect % ([2]; 40 g/ha, 0.25 h after contact): 100%
- Effect % ([2]; 40 g/ha, 0.5 h after contact): 100%
- Effect % ([2]; 40 g/ha, 1 h after contact): 100%
- Effect % ([2]; 40 g/ha, 2 h after contact): 95%
- Effect % ([2]; 40 g/ha, 3 h after contact): 90%
- Effect % ([2]; 40 g/ha, 4 h after contact): 85%
- Effect % ([2]; 40 g/ha, 24 h after contact): 85%
- Effect % ([2]; 200 g/ha, 0.25 h after contact): 100%
- Effect % ([2]; 200 g/ha, 0.5 h after contact): 100%
- Effect % ([2]; 200 g/ha, 1 h after contact): 100%
- Effect % ([2]; 200 g/ha, 2 h after contact): 100%
- Effect % ([2]; 200 g/ha, 3 h after contact): 100%
- Effect % ([2]; 200 g/ha, 4 h after contact): 100%
- Effect % ([2]; 200 g/ha, 24 h after contact): 85%
- Effect % [3, 6]: 95%
- Effect % ([3]; 0.32 g/ha, 0.5 h after contact): 100%
- Effect % ([3]; 0.32 g/ha, 1 h after contact): 100%
- Effect % ([3]; 0.32 g/ha, 2 h after contact): 60%
- Effect % ([3]; 0.32 g/ha, 3 h after contact): 40%
- Effect % ([3]; 0.32 g/ha, 4 h after contact): 40%
- Effect % ([3]; 1.6 g/ha, 0.25 h after contact): 100%
- Effect % ([3]; 1.6 g/ha, 0.5 h after contact): 100%
- Effect % ([3]; 1.6 g/ha, 1 h after contact): 100%
- Effect % ([3]; 1.6 g/ha, 2 h after contact): 100%
- Effect % ([3]; 1.6 g/ha, 3 h after contact): 95%
- Effect % ([3]; 1.6 g/ha, 4 h after contact): 100%
- Effect % ([3]; 8 g/ha, 0.25 h after contact): 100%
- Effect % ([3]; 8 g/ha, 0.5 h after contact): 100%
- Effect % ([3]; 8 g/ha, 1 h after contact): 100%
- Effect % ([3]; 8 g/ha, 2 h after contact): 100%
- Effect % ([3]; 8 g/ha, 3 h after contact): 100%
- Effect % ([3]; 8 g/ha, 4 h after contact): 100%
- Effect % ([3]; 40 g/ha, 0.25 h after contact): 100%
- Effect % ([3]; 40 g/ha, 0.5 h after contact): 100%
- Effect % ([3]; 40 g/ha, 1 h after contact): 100%
- Effect % ([3]; 40 g/ha, 2 h after contact): 100%
- Effect % ([3]; 40 g/ha, 3 h after contact): 100%
- Effect % ([3]; 40 g/ha, 4 h after contact): 100%
- Effect % ([3]; 200 g/ha, 0.25 h after contact): 100%
- Effect % ([3]; 200 g/ha, 0.5 h after contact): 100%
- Effect % ([3]; 200 g/ha, 1 h after contact): 100%
- Effect % ([3]; 200 g/ha, 2 h after contact): 100%
- Effect % ([3]; 200 g/ha, 3 h after contact): 100%
- Effect % ([3]; 200 g/ha, 4 h after contact): 100%
